From patent publication US10307389B2, “Succinate prodrugs for use in the treatment of lactic acidosis or drug-induced side-effects due to Complex I-related impairment of mitochondrial oxidative phosphorylation” (NEUROVIVE PHARMACEUTICAL AB, priority 2014, dated 2019) come the findings set out here.

In data set [1] the test system is intact cells. The data set is described as follows: Screening assay 2: enhancement and inhibition of mitochondrial energy producing function in intact cells (FCCP). In kind it is cell-based, human. The arrangement: key to Convergent (FCCP): increase in mitochondrial oxygen consumption: (+): Brackets [( )] indicate an intermediate effect, i.e. (+++) is between ++ and +++; graded either +, ++ or +++ in increasing order of potency; (++): Brackets [( )] indicate an intermediate effect, i.e. (+++) is between ++ and +++; graded either +, ++ or +++ in increasing order of potency; (+++) is between ++ and +++; graded either +, ++ or +++ in increasing order of potency. The settings on record: for Toxicity: lowest concentration during compound titration at which a decrease in oxygen consumption is seen: screening assay 2; for Convergent (FCCP): increase in mitochondrial oxygen consumption: screening assay 2, uncoupled conditions. On the procedure:
(§1) Measurement of mitochondrial respirationise performed in a high-resolution oxygraph (Oxygraph-2k, Oroboros Instruments, Innsbruck, Austria) at a constant temperature of 37° C. Isolated human platelets, white blood cells, fibroblasts, human heart muscle fibers or other cell types containing live mitochondria are suspended in a 2 mL glass chamber at a concentration sufficient to yield oxygen consumption in the medium of 10 pmol O2 s^−1 mL^−1.
In the second protocol the same buffer is used as described above. After basal respiration is established, the mitochondrial uncoupler FCCP is added at a concentration of 2 nM to increase metabolic demand.

Data set [2] deals with cells with inhibited respiratory complex I. The data set is described as follows: Screening assay 1: enhancement of mitochondrial energy producing function in cells with inhibited respiratory complex I. The class given is cell-based, human. Also on record: key: (+): Brackets [( )] indicate an intermediate effect, i.e. (+++) is between ++ and +++; graded either +, ++ or +++ in increasing order of potency; (++): Brackets [( )] indicate an intermediate effect, i.e. (+++) is between ++ and +++; graded either +, ++ or +++ in increasing order of potency; (+++) is between ++ and +++; graded either +, ++ or +++ in increasing order of potency. The settings on record: screening assay 1, complex I inhibited with rotenone 2 μM. The protocol:
as §1
Cells are placed in a buffer containing 110 mM sucrose, HEPES 20 mM, taurine 20 mM, K-lactobionate 60 mM, MgCl2 3 mM, KH2PO4 10 mM, EGTA 0.5 mM, BSA 1 g/l, pH 7.1. […] Compounds dissolved in DMSO are titrated in a range of 10 μM to 10 mM final concentration. Subsequently, cell membranes are permeabilised with digitonin (1 mg/1*10^6 plt) to allow entry of extracellularly released energy substrate or cell impermeable energy substrates. After stabilized respiration, Succinate 10 mM is added as a reference to enable respiration downstream of complex I. After the respiration stabilized the experiment is terminated by addition of Antimycin at final concentration 1 μg/mL and any residual non-mitochondrial oxygen consumption is measured. An increase in respiration rate in the described protocol is tightly coupled to ATP synthesis by oxidative phosphorylation unless cells are uncoupled (i.e. proton leak without production of ATP). Uncoupling is tested for by addition of the ATP synthase inhibitor oligomycin (1-2 μg mL^−1) in a protocol 3 where the extent of uncoupling corresponds to the respiratory rate following oligomycin addition.

The subject of data set [3] is intact cells. The data set is described as follows: Screening assay 3: uncoupling in intact cells. On Uncoupling: level of oxygen consumption after addition of oligomycin: tested at 1000 µM. The class given is cell-based, human. Also on record: key: (+): Brackets [( )] indicate an intermediate effect, i.e. (+++) is between ++ and +++; graded either +, ++ or +++ in increasing order of potency; (++): Brackets [( )] indicate an intermediate effect, i.e. (+++) is between ++ and +++; graded either +, ++ or +++ in increasing order of potency; (+++) is between ++ and +++; graded either +, ++ or +++ in increasing order of potency. The settings on record: for Uncoupling: level of oxygen consumption after addition of oligomycin: screening assay 3; for Convergent (Routine): increase in mitochondrial oxygen consumption: screening assay 3, 1 mM compound. On the procedure:
Measurement of mitochondrial respirationise performed in a high-resolution oxygraph (Oxygraph-2k, Oroboros Instruments, Innsbruck, Austria) at a constant temperature of 37° C. […] In the third protocol, the same buffer as described above is used. […] Subsequently, the ATP-synthase-inhibitor Oligomycin is added. A reduction in respiration is a measure of how much of the oxygen consumption that is coupled to ATP synthesis. No, or only a slight, reduction indicate that the compound is inducing a proton leak over the inner mitochondrial membrane. The uncoupler FCCP is then titrated to induce maximum uncoupled respiration. […] The experiment is terminated by the addition of 1 μg/mL of the complex III inhibitor Antimycin to measure non-mitochondrial oxygen consumption.

In data set [4] the test system is intact human blood cells with inhibited complex I in human plasma. The data set is described as follows: Screening assay 4: cells with inhibited respiratory complex I in human plasma. The arrangement: key: (+): Brackets [( )] indicate an intermediate effect, i.e. (+++) is between ++ and +++; graded either +, ++ or +++ in increasing order of potency; (++): Brackets [( )] indicate an intermediate effect, i.e. (+++) is between ++ and +++; graded either +, ++ or +++ in increasing order of potency; (+++) is between ++ and +++; graded either +, ++ or +++ in increasing order of potency. In kind it is cell-based. As to conditions: screening assay 4, complex I inhibited. The protocol:
Measurement of mitochondrial respirationise performed in a high-resolution oxygraph (Oxygraph-2k, Oroboros Instruments, Innsbruck, Austria) at a constant temperature of 37° C. […] Intact human blood cells are incubated in plasma from the same donor. […] The experiment is terminated by addition of Antimycin at final concentration 1 μg/mL and any residual non-mitochondrial oxygen consumption is measured.

In data set [5] the test system is intact human platelets. The data set is described as follows: Intervention on rotenone- or metformin-induced lactate production with cell-permeable succinate prodrugs. The class given is cell-based. The settings on record: for effect on rotenone-induced lactate production: 2 μM rotenone, repeated additions of 250 μM; for effect on metformin-induced lactate production: 10 mM metformin, additions of 250 μM each 30 minutes. On the procedure:
Lactate levels are determined every 30 min using the Lactate Pro™ 2 blood lactate test meter (Arkray, Alere A B, Lidingö, Sweden) or similar types of measurements. Incubation is performed at 37° C. pH is measured at start, after 4 and after 8 h (or more frequently) of incubation using a Standard pH Meter, e.g. PHM210 (Radiometer, Copenhagen, Denmark). Drug candidates are added to the assay from start or following 30-60 min at concentrations within the range 10 μM-5 mM. […] In order to evaluate the specificity of the drug candidate, it is also tested in combination with a down-stream inhibitor of respiration such as the complex III inhibitor Antimycin at 1 μg/mL, which should abolish the effect of the drug candidate and restore the production of lactate.
Lactate levels were measured in intervals of 30 min with the onset of the experiment.

“Also recorded” adds a separate entry of the source.

With `CCC(=O)N[C@@H](CSC(=O)CCC(=O)O)C(=O)O` [Compound 01-041, (R)-4-(2-carboxy-2-propionamidoethylthio)-4-oxobutanoic acid], in data set [1], the “Toxicity: lowest concentration during compound titration at which a decrease in oxygen consumption is seen” value stood at 5 mM and the “Convergent (FCCP): increase in mitochondrial oxygen consumption” value (shortened to “Convergent (FCCP): increase”) is given as “+++”. Further, in data set [2], the “CII: increase in mitochondrial oxygen consumption” value (shortened to “CII: increase”) is recorded as “++”. Further, in data set [3], the “Uncoupling: level of oxygen consumption after addition of oligomycin” value (“Uncoupling: level of oxygen consumption” for short) is reported as “(+)” and the “Convergent (Routine): increase in mitochondrial oxygen consumption” value (from here on “Convergent (Routine): increase”) is recorded as “+”. Besides, the “CII (plasma): increase in mitochondrial oxygen consumption” value (“CII (plasma): increase” for short) in data set [4] is “+”.
Turning to `CC(=O)NCCSC(=O)CCC(=O)O` [Compound 01-108, 4-(2-acetamidoethylthio)-4-oxobutanoic acid], in data set [1], the “Toxicity: lowest concentration during compound titration at which a decrease in oxygen consumption is seen” value was found to be 10 mM and the “Convergent (FCCP): increase” value is “++”. In data set [2], the “CII: increase” value is “(++)”. Also, in data set [3], the “Uncoupling: level of oxygen consumption” value is on record as “+” and the “Convergent (Routine): increase” value is “++”. In addition, in data set [4], the “CII (plasma): increase” value was “(+)”.
For the compound `CCC(=O)NCCSC(=O)CCC(=O)O` [Compound 01-114, 4-oxo-4-(2-propionamidoethylthio)butanoic acid], in data set [1], the “Toxicity: lowest concentration during compound titration at which a decrease in oxygen consumption is seen” value came to 10 mM and the “Convergent (FCCP): increase” value is on record as “++”. Besides, the “CII: increase” value in data set [2] is given as “++”. Moreover, in data set [3], the “Uncoupling: level of oxygen consumption” value is reported as “(+)” and the “Convergent (Routine): increase” value is “+++”. In addition, the “CII (plasma): increase” value in data set [4] was “+”.
On to `CC(=O)OC(CCCOC(=O)CCC(=O)O)OC(=O)CCC(=O)O` (centres unmarked) [Compound 01-134], for which, in data set [1], the “Toxicity: lowest concentration during compound titration at which a decrease in oxygen consumption is seen” value was 10 mM and the “Convergent (FCCP): increase” value was “(+)”. Besides, in data set [2], the “CII: increase” value is listed as “(+)”. Further, in data set [3], the “Uncoupling: level of oxygen consumption” value was “(+)” and the “Convergent (Routine): increase” value is “++”. Moreover, the “CII (plasma): increase” value in data set [4] is reported as “(+)”.
In the case of `CC(=O)OC(CCCN1C(=O)c2ccccc2C1=O)OC(=O)CCC(=O)O` (centres unmarked) [Compound 01-150, 4-(1-acetoxy-4-(1,3-dioxoisoindolin-2-yl)butoxy)-4-oxobutanoic acid], in data set [1], the “Toxicity: lowest concentration during compound titration at which a decrease in oxygen consumption is seen” value was determined as 2 mM and the “Convergent (FCCP): increase” value is “+”. Besides, the “CII: increase” value in data set [2] is reported as “++”. Besides, in data set [3], the “Uncoupling: level of oxygen consumption” value is listed as “(+)” and the “Convergent (Routine): increase” value was “+++”. Besides, the “CII (plasma): increase” value in data set [4] is “(+)”.
As to `CCC(=O)N[C@@H](CSC(=O)CCC(=O)SC[C@H](NC(=O)CC)C(=O)N(CC)CC)C(=O)N(CC)CC` [Compound 01-185, S,S-bis((R)-3-(diethylamino)-3-oxo-2-propionamidopropyl) butanebis(thioate)], in data set [1], the “Toxicity: lowest concentration during compound titration at which a decrease in oxygen consumption is seen” value is recorded as 2 mM and the “Convergent (FCCP): increase” value is given as “+”. In addition, the “CII: increase” value in data set [2] is given as “+”. In data set [3], the “Uncoupling: level of oxygen consumption” value is recorded as “(+)” and the “Convergent (Routine): increase” value is “(+)”. Also, in data set [4], the “CII (plasma): increase” value is given as “+”.
Regarding `CC(=O)NCC(C)(C)SC(=O)CCC(=O)O` [Compound 01-188, 4-(1-acetamido-2-methylpropan-2-ylthio)-4-oxobutanoic acid], in data set [1], the “Toxicity: lowest concentration during compound titration at which a decrease in oxygen consumption is seen” value came to 5 mM and the “Convergent (FCCP): increase” value is given as “+++”. Besides, in data set [2], the “CII: increase” value was “+”. In data set [3], the “Uncoupling: level of oxygen consumption” value is reported as “(+)” and the “Convergent (Routine): increase” value is recorded as “+++”. The “CII (plasma): increase” value in data set [4] is on record as “+”.
For `CCN(CC)C(=O)COCCSC(=O)CCC(=O)O` [Compound 01-193, 4-(2-(2-(diethylamino)-2-oxoethoxy)ethylthio)-4-oxobutanoic acid], in data set [1], the “Toxicity: lowest concentration during compound titration at which a decrease in oxygen consumption is seen” value came out at 5 mM and the “Convergent (FCCP): increase” value is reported as “+”. Besides, the “CII: increase” value in data set [2] is reported as “+”. In data set [3], the “Uncoupling: level of oxygen consumption” value is reported as “+” and the “Convergent (Routine): increase” value is “(++)”. Besides, in data set [4], the “CII (plasma): increase” value was “(+)”.
In the case of `CCC(=O)N[C@@H](CSC(=O)CCC(=O)SC[C@H](NC(=O)CC)C(=O)OC)C(=O)OC` [Compound 01-205, (R)-methyl 3-(4-((R)-3-methoxy-3-oxo-2-propionamidopropylthio)-4-oxobutanoylthio)-2-propionamidopropanoate], in data set [1], the “Toxicity: lowest concentration during compound titration at which a decrease in oxygen consumption is seen” value was determined as 5 mM and the “Convergent (FCCP): increase” value is “++”. Also, the “CII: increase” value in data set [2] is on record as “++”. In data set [3], the “Uncoupling: level of oxygen consumption” value is on record as “(+)” and the “Convergent (Routine): increase” value is on record as “+++”. In data set [4], the “CII (plasma): increase” value is on record as “+”.
For the compound `CC(=O)OC(C)OC(=O)CCC(=O)OC(C)OC(C)=O` (centres unmarked) [NV189, Succinic acid bis-(1-acetoxy-ethyl) ester], in data set [5], the “effect on rotenone-induced lactate production” value is on record as “attenuated; also recorded: brought back to normal” and the “effect on metformin-induced lactate production” value is “significantly decreased”.
On the same counts, the results for `CC(=O)OCOC(=O)CCC(=O)OC(C)OC(C)=O` (centres unmarked) [NV241, Succinic acid 1-acetoxy-ethyl ester acetoxymethyl ester] are “attenuated” and “significantly decreased”.
succinate [reference compound]: in data set [5], the “effect on metformin-induced lactate production” value is given as “did not change this; also recorded: did not reduce”.
